Measurements as given in patent publication US7759373B2, “Large conductance calcium-activated K channel opener” (Mitsubishi Tanabe Pharma Corporation, priority 2001, dated 2010).
pEC50: −log10 of the molar value.

Legend:
[1] = system: rhythmic bladder contractions induced by substance P; assay: Inhibitory effect on the rhythmic bladder contractions induced by substance P in anesthetized rats; format: in vivo, rat; settings: time during which frequency of rhythmic contraction was completely inhibited, 0.25 mg/kg of the compound, substance P infusion
In short: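 Urethane-anesthetized female Sprague-Dawley rats with rhythmic bladder contractions driven by i.v. substance P (0.33 μg/kg/min). Compound given i.v. in saline/0.5% Tween 80 once contractions stable 15 min; intravesical pressure monitored, duration of 100% inhibition ranked A ≥20, B ≥10, C <10 min.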

[2] = system: isolated rabbit urinary bladder; assay: Relaxation effect on potassium-induced contraction of isolated rabbit urinary bladder; format: cell-based; settings: Oryctolagus cuniculus; 50% relaxation concentration; high-K+ (30 mM) pre-contracted rabbit bladder strips; relaxation as percentage of the maximum produced by 0.1 mM papaverine; read-out: EC50 value range
Procedure: Relaxation effect on potassium-induced contraction of isolated rabbit urinary bladder
Urinary bladder was isolated from Male NZW rabbits (2.0-3.5 kg) and immersed in ice-cold Krebs-bicarbonate solution (in mM: 118 NaCl, 4.7 KCl, 1.2, 2.5 CaCl2, MgSO4, 1.2 KH2PO4, 11 glucose, 25 NaHCO3). The urinary bladder was cut into longitudinal strips (5 mm length, 3-4 mm width) after mucosal layer was removed. Preparations were mounted in organ baths containing 10 ml of Krebs solution maintained at 37° C. and gassed with 95% O2/5% CO2. Accordingly, preparations were stretched with an initial tension of 2.0±1.0 g, and changes in isometric tension were measured by force-displacement transducer. The preparations were pre-contracted by changing organ-bath solution into high-K^+ (30 mM) Krebs solution (in mM: 92.7 NaCl, 30 KCl, 1.2, 2.5 CaCl2, MgSO4, 1.2 KH2PO4, 11 glucose, 25 NaHCO3).
After stable tension was obtained, compounds were added into organ baths cumulatively (10^−8M-10^−4M). The effects of compounds were expressed as a percentage of the maximum relaxation produced by 0.1 mM papaverine. 50% relaxation concentration (EC50) was calculated and EC50 value range (μM) of the compounds of the present invention was shown in the following Table 64 with a rank of A, B or C. These ranges are as mentioned below. 3≧C≧1≧B≧0.5≧A

| SMILES | pEC50 [2] | 100% inhibition time range [1] |
| --- | --- | --- |
| O=C(O)Cc1nc(-c2ccc3ncccc3c2)oc1-c1ccc(Cl)s1 [Preparation Example 284] | 5.52 to 6.00 | B (A≧20>B≧10>C (minute)) |
| O=C(O)Cc1nc(-c2ccc(F)cc2)oc1-c1ccc2occc2c1 [Preparation Example 285] | 5.52 to 6.00 | B (A≧20>B≧10>C (minute)) |
| Cl.N#CCCc1[nH]c(-c2ccc(F)cc2)nc1-c1ccccc1O [Preparation Example 350, 5-(2-cyanoethyl)-2-(4-fluorophenyl)-4-(2-hydroxyphenyl)-imidazole hydrochloride] | 5.52 to 6.00 | B (A≧20>B≧10>C (minute)) |
| CN(C)c1ncc(-c2nc(CC(=O)O)c(-c3ccc(Cl)s3)o2)cn1 [Preparation Example 362] | 5.52 to 6.00 | A (A≧20>B≧10>C (minute)) |
| CCN(C)c1ncc(-c2nc(CC(=O)O)c(-c3ccc(Cl)s3)o2)cn1 [Preparation Example 363] | 5.52 to 6.00 | C (A≧20>B≧10>C (minute)) |
| CN(C)c1ncc(-c2nc(CC(=O)O)c(-c3ccc(Cl)c(S)c3)o2)cn1 [Preparation Example 364] | 5.52 to 6.00 | B (A≧20>B≧10>C (minute)) |
| CSc1ccc(-c2nc(CC(=O)[O-])c(-c3ccsc3)o2)cn1.[Na+] [Preparation Example 365, 2-(6-methylthiopyridin-3-yl)-5-(3-thienyl)oxazol-4-yl acetic acid sodium salt] | 5.52 to 6.00 | B (A≧20>B≧10>C (minute)) |
| CONC(=O)Cc1nc(-c2ccc(F)cc2)oc1-c1ccsc1 [Preparation Example 373, N-methoxy-[2-(4-fluorophenyl)-5-(3-thienyl)oxazol-4-yl]acetamide] | 5.52 to 6.00 | C (A≧20>B≧10>C (minute)) |
| CNC(=O)Cc1nc(-c2ccc(F)cc2)oc1-c1ccsc1 [Preparation Example 374] | 5.52 to 6.00 | C (A≧20>B≧10>C (minute)) |
| CS(=O)(=O)NCCc1nc(-c2ccc(F)cc2)oc1-c1ccsc1.[Na] [Preparation Example 378, 2-(4-fluoro-phenyl)-4-methanesulfonylaminoethyl-5-(3-thienyl)oxazole sodium salt] | 5.52 to 6.00 | C (A≧20>B≧10>C (minute)) |
| COc1ccc(-c2nc(CC(=O)O)c(-c3ccsc3)o2)cc1C [Preparation Example 438] | 5.52 to 6.00 | C (A≧20>B≧10>C (minute)) |
| CN(C)c1ccc(-c2nc(CC(=O)O)c(-c3ccc(Cl)s3)o2)cc1 [Preparation Example 441] | 5.52 to 6.00 | B (A≧20>B≧10>C (minute)) |
| O=C(O)Cc1nc(-c2cnc3occc3c2)oc1-c1ccc(Cl)s1 [Preparation Example 444] | 5.52 to 6.00 | B (A≧20>B≧10>C (minute)) |
| CSc1ncc(-c2nc(CC(=O)O)c(-c3ccc(Cl)s3)o2)cn1 [Preparation Example 445] | 5.52 to 6.00 | A (A≧20>B≧10>C (minute)) |
| O=C(O)Cc1nc(-c2cc3ccc(F)cc3s2)oc1-c1ccc(Cl)s1 [Preparation Example 451] | 5.52 to 6.00 | B (A≧20>B≧10>C (minute)) |
| O=C(O)Cc1nc(-c2cc3ccccc3s2)oc1-c1ccc(Cl)cc1 [Preparation Example 454] | 5.52 to 6.00 | A (A≧20>B≧10>C (minute)) |
| CSc1ccc(-c2nc(CC(=O)O)c(-c3ccc(Cl)cc3)o2)cc1 [Preparation Example 455] | 5.52 to 6.00 | B (A≧20>B≧10>C (minute)) |
| Cc1nc2cc(-c3nc(CC(=O)O)c(-c4ccc(Cl)s4)o3)ccc2s1 [Preparation Example 459] | 5.52 to 6.00 | C (A≧20>B≧10>C (minute)) |
| CSc1ncc(-c2nc(CC(=O)O)c(-c3ccc(Cl)c(F)c3)o2)cn1 [Preparation Example 462] | 6.00 to 6.30 | C (A≧20>B≧10>C (minute)) |
| COCc1ccc(-c2nc(CC(=O)O)c(-c3ccc(Cl)s3)o2)cn1 [Preparation Example 464] | 5.52 to 6.00 | C (A≧20>B≧10>C (minute)) |
| Cn1ccc2cc(-c3nc(CC(=O)O)c(-c4ccc(Cl)s4)o3)ccc21 [Preparation Example 469] | 5.52 to 6.00 | B (A≧20>B≧10>C (minute)) |
| CN(C)c1ncc(-c2nc(CC(=O)O)c(-c3ccc(Cl)cc3)o2)cn1 [Preparation Example 473] | 6.00 to 6.30 | A (A≧20>B≧10>C (minute)) |

Continued, in another order:

| pEC50 [2] | SMILES | 100% inhibition time range [1] |
| --- | --- | --- |
| ≥ 6.30 | O=C(O)Cc1nc(-c2ccc(Cl)cc2)oc1-c1ccc(Cl)s1 [Preparation Example 275] | A (A≧20>B≧10>C (minute)) |
| 6.00 to 6.30 | O=C(O)Cc1nc(-c2ccccc2O)oc1-c1cccs1 [Preparation Example 277] | C (A≧20>B≧10>C (minute)) |
| 6.00 to 6.30 | Cc1cc(-c2nc(CC(=O)O)c(-c3ccc(Cl)s3)o2)on1 [Preparation Example 278] | B (A≧20>B≧10>C (minute)) |
| ≥ 6.30 | O=C(O)Cc1nc(-c2ccccc2)oc1-c1ccc(Cl)s1 [Preparation Example 279] | C (A≧20>B≧10>C (minute)) |
| ≥ 6.30 | COc1ccc(-c2nc(CC(=O)O)c(-c3ccc(Cl)s3)o2)cc1Cl [Preparation Example 280] | C (A≧20>B≧10>C (minute)) |
| ≥ 6.30 | CSc1ccc(-c2nc(CC(=O)O)c(-c3ccc(Cl)s3)o2)cc1 [Preparation Example 281] | C (A≧20>B≧10>C (minute)) |
| 6.00 to 6.30 | O=C(O)Cc1nc(-c2ccc3c(c2)CCO3)oc1-c1ccc(Cl)s1 [Preparation Example 282] | B (A≧20>B≧10>C (minute)) |
| ≥ 6.30 | O=C(O)Cc1nc(-c2ccc3c(c2)OCCO3)oc1-c1ccc(Cl)s1 [Preparation Example 283] | C (A≧20>B≧10>C (minute)) |
| ≥ 6.30 | O=C(O)Cc1nc(-c2ccc(F)cc2)oc1-c1csc(Cl)c1 [Preparation Example 286] | C (A≧20>B≧10>C (minute)) |
| ≥ 6.30 | O=C(O)Cc1nc(-c2ccc3occc3c2)oc1-c1csc(Cl)c1 [Preparation Example 287] | B (A≧20>B≧10>C (minute)) |
| ≥ 6.30 | O=C(O)Cc1nc(-c2ccc3occc3c2)oc1-c1cc(Cl)cs1 [Preparation Example 288] | C (A≧20>B≧10>C (minute)) |
| ≥ 6.30 | CSc1ccc(-c2nc(CC(=O)[O-])c(-c3cccs3)o2)cn1.[Na+] [Preparation Example 366, 2-(6-methylthiopyridin-3-yl)-5-(2-thienyl)oxazol-4-yl acetic acid sodium salt] | C (A≧20>B≧10>C (minute)) |
| 6.00 to 6.30 | CCOc1ccc(-c2nc(CC(=O)[O-])c(-c3ccc(Cl)s3)o2)cn1.[Na+] [Preparation Example 367, 2-(6-ethoxypyridin-3-yl)-5-(5-chlorothiophen-2-yl)oxazol-4-yl acetic acid sodium salt] | A (A≧20>B≧10>C (minute)) |
| 6.00 to 6.30 | COc1ccc(-c2nc(CC(=O)O)c(-c3cccs3)o2)cc1F [Preparation Example 431] | B (A≧20>B≧10>C (minute)) |
| ≥ 6.30 | Cc1cccc(-c2nc(CC(=O)O)c(-c3cccs3)o2)c1 [Preparation Example 432] | C (A≧20>B≧10>C (minute)) |
| 6.00 to 6.30 | O=C(O)Cc1nc(-c2ccc3ccccc3n2)oc1-c1ccc(Cl)s1 [Preparation Example 434] | B (A≧20>B≧10>C (minute)) |
| 6.00 to 6.30 | O=C(O)Cc1nc(-c2cc3ccccc3o2)oc1-c1ccc(Cl)s1 [Preparation Example 435] | B (A≧20>B≧10>C (minute)) |
| ≥ 6.30 | O=C(O)Cc1nc(-c2cc3ccccc3s2)oc1-c1ccsc1 [Preparation Example 437] | B (A≧20>B≧10>C (minute)) |
| ≥ 6.30 | O=C(O)Cc1nc(-c2nc3ccccc3s2)oc1-c1ccc(Cl)s1 [Preparation Example 446] | C (A≧20>B≧10>C (minute)) |
| ≥ 6.30 | Cc1ccc(-c2nc(CC(=O)O)c(-c3ccc(Cl)s3)o2)cn1 [Preparation Example 452] | B (A≧20>B≧10>C (minute)) |
| 6.00 to 6.30 | CN1CCc2cc(-c3nc(CC(=O)O)c(-c4ccc(Cl)s4)o3)ccc21 [Preparation Example 453] | C (A≧20>B≧10>C (minute)) |
| ≥ 6.30 | Cc1ccc(-c2nc(CC(=O)O)c(-c3ccc(Cl)s3)o2)s1 [Preparation Example 458] | B (A≧20>B≧10>C (minute)) |
